Holding throughout (experiment): NCI tumour cell line growth inhibition, 48 h
For test [1], the system named is CCRF-CEM leukemia.
The subject of test [2] is HCT-15 colon.
Test [3] relates to HT29 colon.
For test [4], the system named is MCF7 breast.
The subject of test [5] is MDA-MB-435.
The subject of test [6] is SF-539 CNS.
Test [7] has as its system SK-MEL-2 melanoma.
The test system of test [8] is SK-MEL-28 melanoma.
Test [9] deals with SNB-75 CNS.
For test [10], the system named is T-47D breast.

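Results reflect a 48-hour exposure of cells in 96-well plates to compound at five concentrations. GI50 is the concentration that inhibits growth by half. At the TGI there is no net growth.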 Where a SMILES comes first, the peptide text is derived from it. Bridges are numbered along the chain shown (N, C = ends).

In the case of `Cl.[O-]c1cccc2cccnc12.[O-]c1cccc2cccnc12.[O-]c1cccc2cccnc12.[O-]c1cccc2cccnc12.[Ti+4]`, the GI50 was 0.291 µM in test [1]; 0.354 µM in [2]; 0.914 µM in test [3]; 0.955 µM in test [4]; 11.6 µM in [5]; 2.06 µM in test [6]. The figures for the GI50 in test [7], in test [8] and in test [9] were 3.32 µM, 4.33 µM and 9.55 µM, respectively. For the same compound, the TGI in test [2] is 7.06 µM; in test [3], 6.86 µM; in test [4] it was above 100 µM; in test [5], above 100 µM; in [6] it was 14.4 µM; in test [7], 26.1 µM. Besides, the TGI in test [8] was above 35.4 µM; in test [9] it was above 100 µM.
`CCOC1Oc2ccccc2C(=O)/C1=C\Nc1ccc(C(=O)O)c(O)c1` (configuration not stated): the GI50 in [2] is 16.4 µM; in test [3], 28.7 µM; in [4], 29.9 µM; in test [5] it was 20.4 µM; in [6], 25.5 µM; in [7], 46.7 µM. Also, the GI50 was 23.9 µM in [8] and 20.3 µM in test [9]. For the same compound, the TGI in [2] was 45.9 µM; in test [3] it was 72.7 µM; in [4] it was above 100 µM; in [5], 44.4 µM; in test [6], 59.5 µM; in test [7] it was above 100 µM. The TGI came out at 65.9 µM in [8] and 58.3 µM in test [9].
As for `COc1ccc2[nH]cc(Cc3c[nH]c4ccc(OC)cc34)c2c1`, the GI50 in [2] was 14.1 µM; in test [3], 17.9 µM; in test [4], 28.7 µM; in test [5], 18.1 µM; in test [6], 17.2 µM; in test [7] it was 17.4 µM. The GI50 in test [8] is 21.8 µM; in test [9], 13.7 µM. For the same compound, the TGI is 27.2 µM in [2]; 32.3 µM in test [3]; above 100 µM in test [4]; 35.3 µM in test [5]; 33.1 µM in test [6]; 43.3 µM in test [7]. Further, the TGI in [8] worked out at 53 µM; in test [9], 50.6 µM.
On to `Cc1nccc2c3ccc(OCc4cn(-c5ccc(Br)cc5)nn4)cc3n(CCCc3ccccc3)c12`, for which the GI50 is 2.97 µM in test [1]; 2.9 µM in [3]; 3.09 µM in test [4]; 1.72 µM in test [6]; above 100 µM in test [7]; 1.72 µM in [8]. The GI50 is 1.54 µM in [9] and above 100 µM in test [10]. For the same compound, the TGI in test [1] was above 100 µM; in test [3], above 100 µM; in [4] it was above 100 µM; in [6], 3.4 µM; in [7], above 100 µM; in test [8], 3.45 µM. The results for the TGI in test [9] and in [10] were 3.98 µM and above 100 µM, respectively.
With `CC1OC(OC2C(O)C(OCCc3ccc(O)c(O)c3)OC(CO)C2OC(=O)/C=C/c2ccc(O)c(O)c2)C(O)C(O)C1O` (configuration not stated), the GI50 in [2] was above 100 µM; in test [4] it was 32.9 µM; in test [5], 39.7 µM; in [6] it was 22.9 µM; in [7], above 100 µM; in [8], 52.7 µM. Moreover, in [10], the GI50 is above 100 µM. Also, the TGI is above 100 µM in test [2]; above 100 µM in [4]; above 100 µM in test [5]; 40.9 µM in test [6]; above 100 µM in test [7]; above 100 µM in [8]. The same compound yielded a TGI in test [10] above 100 µM.
As for `COc1ccccc1/C=C1\CCC(CN2CCOCC2)C1=O` (configuration not stated), the TGI was above 21.3 µM in test [1]; 12.3 µM in [2]; 56.6 µM in test [3]; 21.8 µM in [4]; 20.4 µM in test [5]; 28.6 µM in [6]. Further, the values for the TGI in test [7], in test [8] and in test [9] were 32.2 µM, 29.6 µM and 46.3 µM, respectively.
On to `CCCCCCCCCCCCCC(=O)NO`, for which the TGI in [1] is 6.46 µM; in test [2] it was 26.2 µM; in [3] it was 25.3 µM; in [4], above 100 µM; in test [5], 67 µM; in [6], 37.9 µM. The TGI in test [7] turned out to be 47.6 µM; in test [8], 75.8 µM; in [9] it was 40 µM.
Take `COc1cc(C(=O)c2cnc(-c3ccc4cc[nH]c4c3)[nH]2)cc(OC)c1OC`: the GI50 is 0.0374 µM in test [1]; 0.0381 µM in test [2]; 0.0316 µM in [3]; 0.0376 µM in test [4]; 0.0214 µM in [6]; 0.454 µM in [8]. Moreover, the TGI was above 44.6 µM in test [1]; 4.96 µM in [2]; 0.108 µM in test [3]; 11.4 µM in test [4]; 0.0245 µM in test [5]; 0.0623 µM in [6]. In [8], this compound yielded a TGI of 16 µM.
`O=C1/C=C/[C@@H](O)[C@@H]2C[C@@H](O)C[C@H]2/C=C/CCC[C@H](CCc2ccc(NC(=S)Nc3ccc4c(c3)C(=O)OC43c4ccc(O)cc4Oc4cc(O)ccc43)cc2)O1`: the GI50 was 0.426 µM in [1]; 0.889 µM in test [2]; 0.365 µM in [3]; 0.377 µM in [5]; 0.724 µM in test [6]; 0.456 µM in [7]. The values for the GI50 in test [8], in test [9] and in test [10] were 0.263 µM, 0.252 µM and 1.39 µM, respectively. The TGI is above 100 µM in [1]; above 100 µM in test [2]; 3.61 µM in test [3]; above 100 µM in test [5]; above 100 µM in [6]; 5.22 µM in test [7]. For the same compound, the TGI in test [8] was 0.815 µM; in test [9], above 100 µM; in test [10] it was 76 µM.
Regarding `CCN(CC)CCNc1ccc(N=Nc2cnc3ccccc3c2)c2ccccc12`, the GI50 in [1] was 0.223 µM; in test [2] it was 1.47 µM; in [3], 1.38 µM; in test [4], 1.37 µM; in test [6], 1.67 µM; in [7] it was 2.34 µM. Also, the GI50 was 1.79 µM in [8], 1.36 µM in test [9] and 1.81 µM in test [10]. Moreover, the TGI amounted to 1.09 µM in [1]; 2.93 µM in test [2]; 2.67 µM in [3]; 2.7 µM in test [4]; 3.07 µM in test [6]; 4.3 µM in test [7]. Also, the TGI was 3.29 µM in [8], 2.89 µM in [9] and 4.08 µM in [10].
For the compound `CN(C)c1ccc2cc3c(cc2c1)Oc1ccccc1N3.[Cl][Zn][Cl]`, the GI50 is 3.26 µM in [1]; 2.24 µM in test [2]; 4.09 µM in test [3]; 1.53 µM in test [4]; 1.98 µM in test [5]; 3.68 µM in [6]. Further, the values for the GI50 in test [7], in [8] and in [9] were 9.65 µM, 2.5 µM and 11.4 µM, respectively. The TGI in test [1] is 9.71 µM; in test [2], 6.47 µM; in [3], above 100 µM; in [4], 3.91 µM; in test [5], 4.19 µM; in test [6], 15.6 µM. The TGI was determined as 31.3 µM in test [7], 7.04 µM in test [8] and 24.2 µM in test [9].
For the compound `O=C(O)CC(S)C(=O)O.[Li+].[Sb]` (configuration not stated), the GI50 in test [1] is 57 µM; in test [2], above 100 µM; in [3] it was 88.6 µM; in [5], above 100 µM; in test [7] it was 40.5 µM; in test [8], 55.5 µM. The GI50 in test [10] is above 100 µM. Besides, the TGI in test [1], in test [2], in [3], in test [5], in test [7] and in test [8] was above 100 µM each time. The TGI in [10] is above 100 µM.
As to `COc1ccc2[nH]cc(C3(c4c[nH]c5ccc(OC)cc45)C(=O)Nc4ccc(Cl)cc43)c2c1`, the GI50 is 3.67 µM in test [1]; 7.09 µM in test [2]; 3.12 µM in [4]; 4.39 µM in test [6]; 2.9 µM in [7]; 3.1 µM in test [8]. The GI50 in [9] is 1.9 µM; in test [10] it was 4.93 µM. Also, the TGI in test [1] is above 100 µM; in test [2], above 100 µM; in test [4] it was 42.8 µM; in test [6], above 100 µM; in test [7], 6.67 µM; in test [8], 13.1 µM. Also, the TGI in [9] is 14 µM; in test [10], above 100 µM.
For `CCC(C)C1NC(=O)C(CC(C)C)NC(=O)C(C(C)C)NC(=O)C2CSSCC(NC1=O)C(=O)N2` (configuration not stated) (cyclo(CCVLI); disulfide 1-2; configuration not given here), the TGI in test [2] amounted to 7.12 µM; in test [3], 0.356 µM; in [5], 0.391 µM; in test [6], 0.316 µM; in [7] it was 0.363 µM; in [8], 0.269 µM. The TGI in test [9] was found to be 0.238 µM; in test [10] it was 0.182 µM.

For the origin of these results see PubChem BioAssay (NCI).
